Measurements taken from patent US8192962B2, “Processes for detecting toxic substances” (Daikin Industries, Ltd., priority 2001, dated 2012).

Test system: Energy system protein genes
Experiment: DNA chip mRNA expression in yeast, energy system protein genes (Table 4)
Format: cell-based, Saccharomyces cerevisiae S288C
Outline: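 Values are treated/untreated fluorescence ratios from a whole-genome yeast DNA chip hybridized over 12 hours at 65° C with Cy3- or Cy5-labelled cDNA from poly(A) mRNA. Log-phase S288C yeast in YPD at 25° C had received a single toxic chemical for two hours, dosed to slow growth without killing.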

CCCCCCCCCCCCOS(=O)(=O)[O-].[Na+] [(18), sodium lauryl sulfate]
The level of expressed mRNA in the presence of chemical substance/The level of expressed mRNA in the absence of chemical substance (yeast gene YAL060W): 1.8 | The level of expressed mRNA in the presence of chemical substance/The level of expressed mRNA in the absence of chemical substance (yeast gene YBL058W, cells incubated two hours with the chemical substance): 1.4 | The level of expressed mRNA in the presence of chemical substance/The level of expressed mRNA in the absence of chemical substance (yeast gene YBL099W, cells incubated two hours with the chemical substance): 1.2 | The level of expressed mRNA in the presence of chemical substance/The level of expressed mRNA in the absence of chemical substance (yeast gene YBR001C, cells incubated two hours with the chemical substance): 1.6 | The level of expressed mRNA in the presence of chemical substance/The level of expressed mRNA in the absence of chemical substance (yeast gene YBR185C, cells incubated two hours with the chemical substance): 1.3 | The level of expressed mRNA in the presence of chemical substance/The level of expressed mRNA in the absence of chemical substance (yeast gene YBR221C, cells incubated two hours with the chemical substance): 1.0 | The level of expressed mRNA in the presence of chemical substance/The level of expressed mRNA in the absence of chemical substance (yeast gene YCL040W): 1.7 | The level of expressed mRNA in the presence of chemical substance/The level of expressed mRNA in the absence of chemical substance (yeast gene YCR012W): 1.3 | The level of expressed mRNA in the presence of chemical substance/The level of expressed mRNA in the absence of chemical substance (yeast gene YCR046C, cells incubated two hours with the chemical substance): 1.0 | The level of expressed mRNA in the presence of chemical substance/The level of expressed mRNA in the absence of chemical substance (yeast gene YCR105W, cells incubated two hours with the chemical substance): 1.1 | The level of expressed mRNA in the presence of chemical substance/The level of expressed mRNA in the absence of chemical substance (yeast gene YDL021W): 3.2 | The level of expressed mRNA in the presence of chemical substance/The level of expressed mRNA in the absence of chemical substance (yeast gene YDL067C, cells incubated two hours with the chemical substance): 1.7 | The level of expressed mRNA in the presence of chemical substance/The level of expressed mRNA in the absence of chemical substance (yeast gene YDL078C, cells incubated two hours with the chemical substance): 2.0 | The level of expressed mRNA in the presence of chemical substance/The level of expressed mRNA in the absence of chemical substance (yeast gene YDL107W, cells incubated two hours with the chemical substance): 1.5 | The level of expressed mRNA in the presence of chemical substance/The level of expressed mRNA in the absence of chemical substance (yeast gene YDL174C): 4.0 | The level of expressed mRNA in the presence of chemical substance/The level of expressed mRNA in the absence of chemical substance (yeast gene YDL181W, cells incubated two hours with the chemical substance): 1.4 | The level of expressed mRNA in the presence of chemical substance/The level of expressed mRNA in the absence of chemical substance (yeast gene YDR001C): 1.6 | The level of expressed mRNA in the presence of chemical substance/The level of expressed mRNA in the absence of chemical substance (yeast gene YDR050C, cells incubated two hours with the chemical substance): 2.3 | The level of expressed mRNA in the presence of chemical substance/The level of expressed mRNA in the absence of chemical substance (yeast gene YDR079W, cells incubated two hours with the chemical substance): 1.3 | The level of expressed mRNA in the presence of chemical substance/The level of expressed mRNA in the absence of chemical substance (yeast gene YDR178W, cells incubated two hours with the chemical substance): 2.3 | The level of expressed mRNA in the presence of chemical substance/The level of expressed mRNA in the absence of chemical substance (yeast gene YDR231C): 1.3 | The level of expressed mRNA in the presence of chemical substance/The level of expressed mRNA in the absence of chemical substance (yeast gene YDR298C, cells incubated two hours with the chemical substance): 1.6 | The level of expressed mRNA in the presence of chemical substance/The level of expressed mRNA in the absence of chemical substance (yeast gene YDR377W, cells incubated two hours with the chemical substance): 2.5 | The level of expressed mRNA in the presence of chemical substance/The level of expressed mRNA in the absence of chemical substance (yeast gene YDR529C, cells incubated two hours with the chemical substance): 2.3 | The level of expressed mRNA in the presence of chemical substance/The level of expressed mRNA in the absence of chemical substance (yeast gene YEL024W, cells incubated two hours with the chemical substance): 1.5 | The level of expressed mRNA in the presence of chemical substance/The level of expressed mRNA in the absence of chemical substance (yeast gene YEL039C, cells incubated two hours with the chemical substance): 1.1 | The level of expressed mRNA in the presence of chemical substance/The level of expressed mRNA in the absence of chemical substance (yeast gene YER178W): 0.9 | The level of expressed mRNA in the presence of chemical substance/The level of expressed mRNA in the absence of chemical substance (yeast gene YFL057C): 1.3 | The level of expressed mRNA in the presence of chemical substance/The level of expressed mRNA in the absence of chemical substance (yeast gene YFR053C): 2.2 | The level of expressed mRNA in the presence of chemical substance/The level of expressed mRNA in the absence of chemical substance (yeast gene YGL018C, cells incubated two hours with the chemical substance): 1.0 | The level of expressed mRNA in the presence of chemical substance/The level of expressed mRNA in the absence of chemical substance (yeast gene YGL062W): 0.9 | The level of expressed mRNA in the presence of chemical substance/The level of expressed mRNA in the absence of chemical substance (yeast gene YGL187C, cells incubated two hours with the chemical substance): 2.4 | The level of expressed mRNA in the presence of chemical substance/The level of expressed mRNA in the absence of chemical substance (yeast gene YGL191W, cells incubated two hours with the chemical substance): 1.7 | The level of expressed mRNA in the presence of chemical substance/The level of expressed mRNA in the absence of chemical substance (yeast gene YGL205W, cells incubated two hours with the chemical substance): 9.1 | The level of expressed mRNA in the presence of chemical substance/The level of expressed mRNA in the absence of chemical substance (yeast gene YGL256W, cells incubated two hours with the chemical substance): 0.8 | The level of expressed mRNA in the presence of chemical substance/The level of expressed mRNA in the absence of chemical substance (yeast gene YGR008C): 4.2 | The level of expressed mRNA in the presence of chemical substance/The level of expressed mRNA in the absence of chemical substance (yeast gene YGR043C): 4.8 | The level of expressed mRNA in the presence of chemical substance/The level of expressed mRNA in the absence of chemical substance (yeast gene YGR062C, cells incubated two hours with the chemical substance, 25° C., YPD medium): 1.1 | The level of expressed mRNA in the presence of chemical substance/The level of expressed mRNA in the absence of chemical substance (yeast gene YGR087C, cells incubated two hours with the chemical substance): 0.6 | The level of expressed mRNA in the presence of chemical substance/The level of expressed mRNA in the absence of chemical substance (yeast gene YGR174C, cells incubated two hours with the chemical substance): 2.3 | The level of expressed mRNA in the presence of chemical substance/The level of expressed mRNA in the absence of chemical substance (yeast gene YGR192C): 1.3 | The level of expressed mRNA in the presence of chemical substance/The level of expressed mRNA in the absence of chemical substance (yeast gene YGR244C): 3.1 | The level of expressed mRNA in the presence of chemical substance/The level of expressed mRNA in the absence of chemical substance (yeast gene YGR254W): 1.2 | The level of expressed mRNA in the presence of chemical substance/The level of expressed mRNA in the absence of chemical substance (yeast gene YHR179W): 1.6 | The level of expressed mRNA in the presence of chemical substance/The level of expressed mRNA in the absence of chemical substance (yeast gene YIL160C): 3.0 | The level of expressed mRNA in the presence of chemical substance/The level of expressed mRNA in the absence of chemical substance (yeast gene YIR031C, cells incubated two hours with the chemical substance): 0.8 | The level of expressed mRNA in the presence of chemical substance/The level of expressed mRNA in the absence of chemical substance (yeast gene YJL052W): 1.9 | The level of expressed mRNA in the presence of chemical substance/The level of expressed mRNA in the absence of chemical substance (yeast gene YJL121C, cells incubated two hours with the chemical substance): 1.0 | The level of expressed mRNA in the presence of chemical substance/The level of expressed mRNA in the absence of chemical substance (yeast gene YJL166W, cells incubated two hours with the chemical substance): 4.0 | The level of expressed mRNA in the presence of chemical substance/The level of expressed mRNA in the absence of chemical substance (yeast gene YJL216C, cells incubated two hours with the chemical substance): 2.0
